Assay results as given in patent US20130217085A1, “METHODS FOR IMPROVING FERMENTATION YIELD OF POLYUNSATURATED FATTY ACIDS” (NANJING UNIVERSITY OF TECHNOLOGY, priority 2010, published 2013).

System: Schizochytrium limacinum HX-308
Assay: Shake-flask fermentation of Schizochytrium limacinum HX-308 with exogenous compatible solute added to the fermentation medium (fatty acid composition, DHA yield, biomass)
Type: cell-based
From the text: The detection method of the following Examples is the same as that in the application titled “Schizochytrium limacinum and method of production of DHA oil using the same” (Application No. 200910033869.5) The strain is Schizochytrium limacinum HX-308 with deposit number CCTCC No. M209059. Seed medium: D-glucose 40 g/L, yeast extract 2 g/L, sodium glutamate 10 g/L, MgCl2 3 g/L, CaCl2·2H2O 1 g/L, KH2PO4 4 g/L, KCl 2 g/L, NaCl 15 g/L, MgSO4·7H2O 5 g/L, FeCl3 0.1 g/L. (See “A Schizochytrium limacinum and method of production of DHA oil using the same” (Application No. 200910033869.5)). Fermentation medium: D-glucose 40 g/L, yeast extract 2 g/L, sodium glutamate 10 g/L, MgCl2 3 g/L, (NH4)2SO4 6 g/L, KH2PO4 4 g/L, KCl 2 g/L, NaCl 15 g/L, MgSO4·7H2O 5 g/L, FeCl3 0.1 g/L. (See “A Schizochytrium limacinum and method of production of DHA oil using the same” (Application No. 200910033869.5)). Cultural method: strain was inoculated into seed medium with inoculation amount of 5% (v/v), cultured in a 500 mL shake flask for 24 h to log phase under 170 r at 25° C., and inoculated into the fermentation medium with addition of a certain amount of glycine betaine (such as 10 mmol/L, 40 mmol/L, 70 mmol/L, 100 mmol/L) in inoculation amount of 9% (v/v) for culturing; fermentation ceased when glucose reached an amount of 0 g/L. The results are shown in Table 1. The strain is Schizochytrium limacinum HX-308 with deposit number CCTCC No. M209059. Seed medium: D-glucose 40 g/L, yeast extract 2 g/L, sodium glutamate 10 g/L, MgCl2 3 g/L, CaCl2·2H2O 1 g/L, KH2PO4 4 g/L, KCl 2 g/L, NaCl 15 g/L, MgSO4·7H2O 5 g/L, FeCl3 0.1 g/L. Fermentation medium: D-glucose 40 g/L, yeast extract 2 g/L, sodium glutamate 10 g/L, MgCl2 3 g/L, (NH4)2SO4 6 g/L, KH2PO4 4 g/L, KCl 2 g/L, NaCl 15 g/L, MgSO4·7H2O 5 g/L, FeCl3 0.1 g/L. Cultural method: the strain was inoculated into seed medium with inoculation amount of 5% (v/v), cultured in a 500 mL shake flask for 24 h to log phase under 170 r at 25° C., and inoculated into the fermentation medium with addition of a certain amount of trehalose (such as 10 mmol/L, 40 mmol/L, 80 mmol/L) in inoculation amount of 9% (v/v); fermentation ceased when glucose reached an amount of 0 g/L. The results are shown in Table 2.

[1] = exogenous glycine betaine 10 mM
[2] = exogenous glycine betaine 40 mM
[3] = exogenous glycine betaine 70 mM
[4] = exogenous glycine betaine 100 mM
[5] = exogenous glycine betaine 200 mM

Structure (SMILES): C[N+](C)(C)CC(=O)[O-] [glycine betaine]
- mass percentage of squalene (after treatment with exogenous glycine betaine, concentration not given, increased from 0.8%): 1.7%
- DHA yield (after treatment with exogenous glycine betaine, concentration not given, increased from 3.9 g/L): 5.0 g/L
- Total fatty acid yield (after treatment with exogenous glycine betaine, concentration not given, increased from 8.8 g/L): 10 g/L
- mass percentage of DPA in total fatty acids (after treatment with exogenous glycine betaine, concentration not given, increased from 11.9%): 16.2%
- mass percentage of DHA in total fatty acids (after treatment with exogenous glycine betaine, concentration not given, increased from 44.1%): 49.8%
- ratio of DHA in the total biomass (after treatment with exogenous glycine betaine, concentration not given, increased from 57): 72 mg/g
- mass percentage of saturated fatty acid C14: 0 in total fatty acid (after treatment with exogenous glycine betaine, concentration not given, reduced from 10.0%): 5.1%
- mass percentage of saturated fatty acid C16: 0 in total fatty acid (after treatment with exogenous glycine betaine, concentration not given, reduced from 24.4%): 20%
- increase of DHA yield (after treatment with exogenous glycine betaine, versus no addition): 28%
- ARA (% total fatty acids) [1]: 0.5 % total fatty acids
- Biomass [1]: 69 g/L
- C14:0 (% total fatty acids) [1]: 7.1 % total fatty acids
- C16:0 (% total fatty acids) [1]: 21.5 % total fatty acids
- DHA (% total fatty acids) [1]: 47.8 % total fatty acids
- DHA (mg/g biomass) [1]: 60.5 mg/g biomass
- DHA yield [1]: 4.2 g/L
- DPA (% total fatty acids) [1]: 14.5 % total fatty acids
- EPA (% total fatty acids) [1]: 1.2 % total fatty acids
- Others (% total fatty acids) [1]: 6.2 % total fatty acids
- Squalene (% total fatty acids) [1]: 1.2 % total fatty acids
- Total fatty acid yield [1]: 8.8 g/L
- ARA (% total fatty acids) [2]: 0.6 % total fatty acids
- Biomass [2]: 69 g/L
- C14:0 (% total fatty acids) [2]: 5.1 % total fatty acids
- C16:0 (% total fatty acids) [2]: 19.9 % total fatty acids
- DHA (% total fatty acids) [2]: 49.8 % total fatty acids
- DHA (mg/g biomass) [2]: 72.2 mg/g biomass
- DHA yield [2]: 5 g/L
- DPA (% total fatty acids) [2]: 16.2 % total fatty acids
- EPA (% total fatty acids) [2]: 1.6 % total fatty acids
- Others (% total fatty acids) [2]: 5.1 % total fatty acids
- Squalene (% total fatty acids) [2]: 1.7 % total fatty acids
- Total fatty acid yield [2]: 10 g/L
- ARA (% total fatty acids) [3]: 0.8 % total fatty acids
- Biomass [3]: 70 g/L
- C14:0 (% total fatty acids) [3]: 5.1 % total fatty acids
- C16:0 (% total fatty acids) [3]: 19.5 % total fatty acids
- DHA (% total fatty acids) [3]: 49.0 % total fatty acids
- DHA (mg/g biomass) [3]: 67.1 mg/g biomass
- DHA yield [3]: 4.7 g/L
- DPA (% total fatty acids) [3]: 16.0 % total fatty acids
- EPA (% total fatty acids) [3]: 2.0 % total fatty acids
- Others (% total fatty acids) [3]: 5.6 % total fatty acids
- Squalene (% total fatty acids) [3]: 2.0 % total fatty acids
- Total fatty acid yield [3]: 9.6 g/L
- ARA (% total fatty acids) [4]: 0.9 % total fatty acids
- Biomass [4]: 70 g/L
- C14:0 (% total fatty acids) [4]: 5.2 % total fatty acids
- C16:0 (% total fatty acids) [4]: 19.0 % total fatty acids
- DHA (% total fatty acids) [4]: 48.1 % total fatty acids
- DHA (mg/g biomass) [4]: 61.14 mg/g biomass
- DHA yield [4]: 4.3 g/L
- DPA (% total fatty acids) [4]: 15.8 % total fatty acids
- EPA (% total fatty acids) [4]: 2.6 % total fatty acids
- Others (% total fatty acids) [4]: 6.1 % total fatty acids
- Squalene (% total fatty acids) [4]: 2.3 % total fatty acids
- Total fatty acid yield [4]: 8.9 g/L
- Biomass [5]: 85 g/L
- C14:0 (% total fatty acids) [5]: 2.3 % total fatty acids
- C16:0 (% total fatty acids) [5]: 10.9 % total fatty acids
- DHA (% total fatty acids) [5]: 34.9 % total fatty acids
- DHA (mg/g biomass) [5]: 27 mg/g biomass
- DHA yield [5]: 2.3 g/L
- DPA (% total fatty acids) [5]: 10.5 % total fatty acids
- EPA (% total fatty acids) [5]: 8.6 % total fatty acids
- Others (% total fatty acids) [5]: 30.9 % total fatty acids
- Squalene (% total fatty acids) [5]: 1.9 % total fatty acids
- Total fatty acid yield [5]: 6.6 g/L
